What is called pIC50 is the negative decadic logarithm of the IC50, by convention in mol/L. A low value points to a large IC50.

The text below walks through data of ChEMBL document CHEMBL1287698, “Artemisinin-quinoline hybrid-dimers: synthesis and in vitro antiplasmodial activity” (Bioorg Med Chem Lett, 2010).

In data set [1] the test system is Plasmodium falciparum. In words: Resistance index, ratio of IC50 for chloroquine-resistant Plasmodium falciparum Dd2 to IC50 for chloroquine-sensitive Plasmodium falciparum D10. Format: functional.
Data set [2] has as its system Plasmodium falciparum. Put plainly: Antiplasmodial activity against chloroquine-sensitive Plasmodium falciparum D10. The format is functional, organism-based.
In data set [3] the test system is Plasmodium falciparum. In words: Antiplasmodial activity against chloroquine-resistant Plasmodium falciparum Dd2. The format is functional, organism-based.
Data set [4] concerns CHO. In words: Cytotoxicity against CHO cells by MTT assay. Format: cell-based. The settings on record: Cricetulus griseus.
Data set [5] in a line: Selectivity index, ratio of IC50 for CHO cells to IC50 of chloroquine-sensitive Plasmodium falciparum D10. Format: toxicity, cell-based. The settings on record: hamster, read-out: Ratio IC50.

pIC50: −log10 of the molar value.

Regarding `CC[C@H]1CN2CCc3cc(OC)c(OC)cc3[C@@H]2C[C@@H]1C[C@H]1NCCc2cc(OC)c(OC)cc21` [EMETINE], in data set [1], the “Ratio IC50” value is recorded as 0.4.

With `C[C@H]1[C@@H](O)O[C@@H]2O[C@@]3(C)CC[C@H]4[C@H](C)CC[C@@H]1[C@@]24OO3` [ARTENIMOL], the pIC50 in data set [2] was 8.29; in data set [3], 8.68.

`C[C@H]1[C@@H](OCCN(CCNc2ccnc3cc(Cl)ccc23)CCO[C@H]2O[C@@H]3O[C@]4(C)CC[C@H]5[C@H](C)CC[C@@H]([C@H]2C)[C@@]35OO4)O[C@@H]2O[C@]3(C)CC[C@H]4[C@H](C)CC[C@@H]1[C@@]24OO3`: the negative logarithm of the IC50 (pIC50) in data set [2] was 8.13; in data set [3], 7.34; in data set [4], 8.00. Also, the “Ratio IC50” value in data set [1] came to 6. Besides, in data set [5], the selectivity ratio amounted to 1360.

On to `C[C@H]1[C@@H](OCCN(CCCCNc2ccnc3cc(Cl)ccc23)CCO[C@H]2O[C@@H]3O[C@]4(C)CC[C@H]5[C@H](C)CC[C@@H]([C@H]2C)[C@@]35OO4)O[C@@H]2O[C@]3(C)CC[C@H]4[C@H](C)CC[C@@H]1[C@@]24OO3`, for which the pIC50 was 7.05 in data set [2], 6.69 in data set [3] and 8.27 in data set [4]. In addition, the “Ratio IC50” value in data set [1] was 2. Also, the selectivity ratio in data set [5] was determined as 61.

For `C[C@H]1[C@@H](O[N+]2(CCO[C@H]3O[C@H]4O[C@]5(C)CC[C@H]6[C@H](C)CC[C@@H]([C@H]3C)[C@@]46OO5)CCN(CCNc3ccnc4cc(Cl)ccc34)CC2)O[C@@H]2O[C@]3(C)CC[C@H]4[C@H](C)CC[C@@H]1[C@@]24OO3.[Br-]`, the pIC50 was 7.71 in data set [2], 7.25 in data set [3] and 7.13 in data set [4]. The “Ratio IC50” value in data set [1] was 3. The selectivity ratio in data set [5] was 3810.

Consider `C[C@H]1[C@@H](OCCN(CCCNc2ccnc3cc(Cl)ccc23)CCO[C@H]2O[C@@H]3O[C@]4(C)CC[C@H]5[C@H](C)CC[C@@H]([C@H]2C)[C@@]35OO4)O[C@@H]2O[C@]3(C)CC[C@H]4[C@H](C)CC[C@@H]1[C@@]24OO3`, for which the results for the pIC50 in data set [2], in data set [3] and in data set [4] were 8.27, 7.55 and 9.17, respectively. Further, in data set [1], the “Ratio IC50” value turned out to be 5. In addition, the selectivity ratio in data set [5] came out at 128.
